According to US20220339135A1, “COMPOSITIONS AND METHODS FOR MODULATING AN INFLAMMATORY RESPONSE” (Enzychem Lifesciences Corporation, priority 2019, published 2022):

Assays:
[1] = system: lysosomal activity in THP-1 cells; assay: MSU-induced lysosomal activity; format: cell-based, human; conditions: MSU/PLAG treated cells
Procedure: THP-1 cells were divided into two groups: 1) MSU treated group and 2) MSU/PLAG treated group. For MSU treated group, THP-1 cells were stimulated with monosodium urate (MSU) crystal (400 μg/ml) for 0, 10, 20, 30, 40, 50, 60 minutes. For MSU/PLAG treated group, THP-1 cells were pre-incubated with PLAG (100 μg/ml) for an hour and then stimulated with monosodium urate (MSU) crystal (400 μg/ml) for 0, 10, 20, 30, 40, 50, 60 minutes. Then, cells were harvested. (A) To detect for the P2Y6 receptor on the membrane surface, cells were fixed with 4% paraformaldehyde (Sigma-Aldrich) and incubated with PBS containing 1% BSA for blocking. They were labeled with the rabbit anti-P2Y6 receptor antibody (1:200, APR-011, Alomone Labs, Jerusalem, Israel) for 1 h. The detection Ab was used with Alexa Flour 488 goat anti-rabbit IgG (Invitrogen). (B) To detect lysosomal activity, THP-1 cells were stained with Texas red conjugated-LYSO-ID® Lysosomal Detection Kit (Enzo Life Sciences, Inc.). Finally, cells were washed with 1% FBS/PBS and mounted with DAPI-containing fluorescence microscopy mounting medium (Invitrogen). Confocal samples were analyzed with a laser scanning confocal microscope (Carl Zeiss, Oberkochen, Germany). For flow cytometric analysis, cells were washed and analyzed with a FACSVerse flow cytometer (BD Biosciences). FlowJo software (Tree Star, OR, USA) was used data processing.

[2] = system: intracellular lysosomes of Raw264.7 cells; assay: LPS-induced lysosomal activity (LYSO-ID); format: cell-based; conditions: LPS/PLAG treatment
Procedure: Raw264.7 cells were divided into two groups: 1) LPS treated group and 2) LPS/PLAG treated group. For the LPS treated group, cells were treated with 100 μg/ml of DMSO (as solvent control) for 1 hour and treated with LPS (100 ng/ml) for 15, 30, 60, and 120 minutes. For LPS/PLAG treated group, cells were treated with PLAG (100 μg/ml) for 1 hour and treated with LPS (100 ng/ml) for 15, 30, 60, and 120 minutes. Cells were then fixed and stained using rat anti-TLR4/MD2 antibody with Alexa488-conjugated anti-rat IgG secondary antibody. These were analyzed by confocal microscopy. Raw264.7 cells stimulated under the same conditions were fixed, permeabilized, and stained with CM-H2DCFDA, the LYSO-ID® Lysosomal Detection Kit and rabbit anti-p47phox. Confocal microscopy was performed; all data shown represent one experiment performed in triplicate.

[3] = Cumulative excretion of radioactivity after single oral administration; format: in vivo, rats
Procedure: Excretion of PLAG at a single oral administration of 50 mg/kg BW to rats was examined in Mitsubishi Chemical Medicine Corporation (Japan) by radioactivity analysis. After oral administration of a single dose of 50 mg/kg, animals were individually accommodated in glass metabolic cages (Metabolica Model MC-CO2). Spontaneously excreted urine, feces, and radioactive molecules expired from each animal were collected. Sampling time points are 0-24, 24-48, 48-72 hours after administration. Then radioactivity and the excretion ratios and amount of radioactivity were determined. Radioactivity was measured by LSC (Tri-Carb 2300TR. Perkin Elmer, Inc) with the tSIE (transformed spectral index of external standard) method for the quenching correction.

[4] = system: ERK, p38 MAPK, JNK in THP-1 cells; assay: Gemcitabine-induced phosphorylation of ERK, p38 MAPK, JNK, western blot; format: cell-based, human
Procedure: Total cells were lysed on ice for 30 minutes in RIPA buffer composed of 50 mM Tris-HCl (pH 7.4), 150 mM NaCl, 2 mM EDTA, 1% NP-40, 0.5% sodium deoxycholate, 0.1% SDS, 1 mM phenylmethylsulfonyl fluoride (PMSF), 10 mM sodium fluoride, 2 mM sodium pyrophosphate, 10 mM β-glycerophosphate, 10 mM sodium orthovanadate. Membrane-and-cytoplasmic protein fractions of cultured cells were obtained with Mem-PER Plus Membrane Protein Extraction Kit (Thermo Scientific, MA, USA) according to the manufacturer's instructions. The lysates were centrifuged at 13,000 rpm for 20 minutes at 4° C. and protein concentrations were determined using the Bradford assay (Bio-Rad Laboratories). Denatured samples were mixed with a 5×SDS-PAGE loading buffer and heated to 100° C. for 15 min. The samples were separated on the 10% of SDS-PAGE gel and transferred to polyvinylidene difluoride (PVDF) membranes (Merck Millipore Corporation, MA, USA). Membranes were blocked with 5% non-fat milk in PBS (10 mM Tris-HCl, pH7.5, 150 mM NaCl) for 1 h and probed with primary antibodies against ERK1/2, phospho-ERK1/2, P38, phospho-P38, SAPK/JNK, phospho-SAPK/JNK, Na, K-ATPase, α-Tubulin, and β-actin from Cell Signaling Technology (MA, USA), Rac1 from Merck Millipore Corporation), p47phox and phospho-p47phox from Invitrogen, adenosine receptor A1 from Abcam, β arrestin-1 from Santa Cruz Technology for overnight at 4° C. The blots were washed and incubated with appropriate secondary antibodies and visualized using Pierce ECL Western Blotting Substrate (Thermo Scientific).

CCCCC/C=C\C/C=C\CCCCCCCC(=O)OC(COC(C)=O)COC(=O)CCCCCCCCCCCCCCC (racemic) [PLAG, 1-palmitoyl-2-linoleoyl-3-acetylglycerol]
lysosomal activity detected [1]: about 10 minutes
lysosomal activity returned [1]: about 30 minutes
lysosomal activity initiated [2]: 15 min
return to homeostatic levels of lysosomal activity [2]: 60 min
dosed radioactivity excreted into expired air ([3]; 50 mg/kg oral, by 24 hours): 71.0%
dosed radioactivity excreted into feces ([3]; 50 mg/kg oral, by 24 hours): 3.0%
dosed radioactivity excreted into urine ([3]; 50 mg/kg oral, by 24 hours): 1.9%
total recovery of radioactivity ([3]; 50 mg/kg oral, by 24 hours): 75.9%
PLAG administered degraded and metabolized ([3]; within 24 hours): approximately 76%
gemcitabine-induced phosphorylation of ERK and p38 MAPK [4]: dose-dependently decreased
gemcitabine-induced phosphorylation of JNK [4]: did not
